Patent publication US10561736B1, “Apoptosis inhibitor formulations for prevention of hearing loss” (Spiral Therapeutics, Inc., priority 2019, dated 2020)
Entries after “also recorded” stand apart in the source; their conditions may differ. Where two headings read alike, the source gives them in different places.

What was measured:
[1] = distribution in cochlea and plasma after a single IT administration; format: in vivo; settings: rat
Protocol: Distribution of LPT99 was investigated in cochlea and plasma after a single IT administration in rats. The inhibitor was administered at 50, 100, or 200 μM (dissolved in 5% hydroxypropyl cyclodextrin in physiological serum).

caspase 3 [2] = test: CisPt-induced caspase 3 activation in HEI-OC1 cells; format: cell-based
Protocol: To identify off-target activities of LPT99, its selectivity against a panel of receptors (44 G-protein-coupled receptors [GPCR] and 4 non-GPCR), 4 ion channels, and 3 transporters were analyzed. The cell line, HEI-OC1 (house ear institute organ of Corti 1), which expresses several characteristic markers of the organ of Corti sensory cells (Kalinec, et al., Audiol. Neurootol. 2003, 8(4), 177-89), was used to evaluate the efficacy of LPT99 in preventing apoptosis due to […]. Cells were pre-incubated with LPT99, followed by […] for 24 hours.

[3] = GLP acute systemic toxicity study with toxicokinetics, single IP dose; format: in vivo; settings: Sprague-Dawley, plasma, rat
Protocol: (§1) A GLP acute systemic toxicity study was conducted with LPT99 administered via IP injection in Sprague-Dawley rats. The acute systemic toxicity study was preceded by a non-GLP maximum tolerated dose (MTD) toxicity study, via the same administration and test system, which determined the MTD of LTP99 to be 1000 mg/kg.
(§2) LPT99 was suspended in vehicle [0.5% w/v methylcellulose and 0.1% v/v TWEEN® 80 in Milli-Q water] and administered intraperitoneally to Sprague-Dawley rats as a single dose at the doses of 100 (low—G2/G2TK), 300 (mid—G3/G3TK), and 750 (high—G4/G4TK) mg/kg body weight. The rats in vehicle control groups (G1/G1TK) received the vehicle alone. The dose volume administered was at an equivolume of 10 mL/kg body weight for all groups.
(§3) The main toxicity groups consist of 15 rats/sex/group in G1 and G4 groups and 10 rats/sex/group in G2 and G3 groups. The toxicokinetic groups consisted of 6 males and 6 female rats each for the prevention groups, whereas the vehicle control group had 3 male and 3 female rats.

Sprague-Dawley rats = test: as above; format: in vivo; settings: rat; for dose proportionality of Cmax and AUClast: IP 100 to 750 mg/kg/day
Protocol: as §1, §2, §3

[4] = system: ion channels, including hERG potassium channels; test: effects on ion channels in CHO and HEK 293 cells; format: cell-based
Description: Torsadogenic refers to the development of torsade de Pointes (TdP) arrythimias.

[5] = system: auditory function (ototoxicity); test: non-GLP auditory toxicity after intra-tympanic administration; format: in vivo, rat; settings: for ototoxicity: rat
guinea pigs = test: dermal sensitization range-finding pilot sub-study; format: in vivo, guinea pig; settings: topical 50 μl, 200, 400, or 797 μM
Protocol: A GLP-compliant dermal sensitization study was conducted with LPT99 in guinea pigs. The objective was to assess potential dermal sensitization of LPT99 using the Buehler test (Buehler, Arch Dermatol. 1965, 91, 171-7).
The test article, LPT99, was in a neutral-pH, buffered, isotonic solution containing a thermoreversible compound. The vehicle control was buffered at neutral pH and formulated as for the test article; it contained POLOXAMER® 407, disodium phosphate dodecahydrate hydrogen, sodium dihydrogen phosphate dihydrate, sodium chloride, and water for injection.
In the range-finding pilot substudy, 4 guinea pigs (2 males and 2 females; Charles River, Stone Ridge, N.Y.) were dosed.

caspase 3 [6] = settings: cellular model of CisPt-induced apoptosis; IEB Symposium abstracts 2016; cited from earlier work

Structure (SMILES): COc1ccc2[nH]cc(CCNC(=O)CC3C(=O)N(CCc4ccc(Cl)cc4Cl)CC(=O)N3CCc3cccs3)c2c1 (stereo not drawn) [LPT99, 2-(4-(2,4-dichlorophenethyl)-3,6-dioxo-1-(2-(thiophen-2-yl)ethyl)piperazin-2-yl)-N-(2-(5-methoxy-1H-indol-3-yl)ethyl)acetamide]
- detection of LPT99 in administered cochleae ([1]; single IT 50, 100, or 200 μM in 5% hydroxypropyl cyclodextrin, 0.5 and 1 hour): detected in all administered cochleae
- LPT99 concentrations in contralateral cochleae and plasma ([1]; single IT, all time points): BLLQ
- caspase 3 activation in the cellular model (caspase 3 [2]; cellular model of CisPt-induced apoptosis): reduced caspase-3 activation
- IC50 (caspase 3 [2]; read-out: 50% inhibitory concentration (IC50) for caspase 3, HEI-OC1 cells pre-incubated with LPT99, then CisPt for 24 hours): 5.2 ± 1.6 µM
- Tmax ([3]; IP 100 mg/kg/day, female, read-out: Tmax): 8 h
- Tmax ([3]; IP 100 mg/kg/day, male, read-out: Tmax): 2 h
- Tmax ([3]; both sexes, IP, dose levels other than 100 mg/kg/day, both genders, read-out: time to reach peak plasma concentrations (Tmax)): 24 h
- body weights or body weight gains (Sprague-Dawley rats; IP 750 mg/kg, first 7 days, both sex): not statistically significantly lower
- food consumption (Sprague-Dawley rats; IP 750 mg/kg, males days 1-7, females days 1-4, vs control): statistically significant reduction
- epididymides weight (Sprague-Dawley rats; IP 750 mg/kg, males, Day 2): increase in epididymides weight
- neutrophil count (Sprague-Dawley rats; IP 750 mg/kg, males, Day 15): minimal increase in neutrophil count
- dose proportionality of Cmax and AUClast (Sprague-Dawley rats; female): approximate dose proportional increase
- dose proportionality of Cmax and AUClast (Sprague-Dawley rats; male): More than dose proportional increase
- liver weight (Sprague-Dawley rats; IP 300 and 750 mg/kg, males and females, Day 2): increase in liver weight
- inflammatory response, localisation (Sprague-Dawley rats; IP, Day 2 and Day 15, parenchyma not affected): restricted to the mesentery and surface of the visceral organs in abdominal cavity
- coagulation parameters (Sprague-Dawley rats; IP, Days 2 and 15): not affected
- urinalysis parameters (Sprague-Dawley rats; IP, Days 2 and 15): unaffected
- neutrophil count (Sprague-Dawley rats; IP, all dose groups, Day 2): increased neutrophil count
- mediastinal lymph node, microscopic finding (Sprague-Dawley rats; IP, all test item injected groups, Day 2): necrosis/inflammation of lymph node
- exposure in females relative to males (Sprague-Dawley rats; IP, all tested dose levels): 1.5-5.5 fold
- clinical chemistry parameters (Sprague-Dawley rats; IP, males): no test item related changes
- general tolerability (Sprague-Dawley rats; single IP 100, 300, 750 mg/kg): generally safe and well tolerated
- mortality (Sprague-Dawley rats; single IP 100, 300, 750 mg/kg): No mortality was observed
- clinical signs (Sprague-Dawley rats; single IP, all tested dose groups): no clinical signs observed
- torsadogenic / cardiotoxic risk [4]: low torsadogenic risk; also recorded: low cardiotoxic risk
- ABR thresholds in response to click or pure tones (8 to 40 kHz), latencies and amplitudes ([5]; IT, in cyclodextrin, 100 or 200 μM, Day 3): did not produce a statistically significant increase in the thresholds
- ototoxicity ([5]; IT, 100 and 478 μM, follow-up experiment): no LPT99 ototoxicity
- ototoxicity ([5]; IT, 200, 400, and 797 μM): no ototoxicity
- Draize scores (erythema and edema) (guinea pigs): 0
- caspase-3 activation (caspase 3 [6]): reduced caspase-3 activation
